Series [1] relates to analgesia and inflammation. The series can be described thus: intramuscular administration to human: analgesia and inflammation. It is filed as in vivo. The conditions noted are these: Example III, ethyl oleate/benzyl alcohol, 1.5 ml in 65 kg human. The method, then: The octadecatrienamide is dissolved in the solution combining ethyl oleate and benzyl alcohol, sealed into airtight 5 ml ampoules, and sterilized by autoclaving.
A composition for parenteral administration of N-vanillyl-5Z,8Z,11Z,14Z-eicosatetraenamide is prepared by a substantially similar method.

The test system of series [2] is analgesia and inflammation. The experiment in a line: oral administration to human: analgesia and inflammation. In kind it is in vivo. The method, then: A composition for oral administration of N-vanillyl-5Z,8Z,11Z,14Z-eicosatetraenamide is prepared by a substantially similar method.
Series [3] has as its system analgesia and inflammation. The experiment in a line: topical administration to human: analgesia and inflammation. It is filed as in vivo. The note with it: Example VI, 0.4 ml to 80 cm^2 of forearm of 60 kg human. The procedure: The octadecatrienamide is melted to a liquid with slight warming and combined with the other ingredients.
A composition for topical application of N-vanillyl-5Z,8Z,11Z,14Z-eicosatetraenamide is prepared by a substantially similar method.

Series [4] concerns croton oil-induced mouse ear inflammation. The series can be described thus: croton oil-induced mouse ear inflammation test. The conditions noted are these: 25 μl of 1% ethanolic solution on left ear, 20-28 h and 5-6 h prior to sacrifice; 2% croton oil 4 h prior to sacrifice. In kind it is in vivo, mouse (adult male Cox ICR mice). The method, then: Two trienamide compositions were tested for anti-inflammatory activity using the croton oil-induced mouse ear inflammation test.
Adult male Cox ICR mice, 20-30 g, were treated on the left ear at 20-28 hours prior to sacrifice and a second time 5-6 hours prior to sacrifice with 25 μl of a 1% ethanolic solution of the test compound. Four hours prior to sacrifice both ears were treated with 25 μl of a 2% solution of croton oil in acetone. Each animal was then placed in individual cages and given food and water ad lib. Animals were sacrificed by cervical dislocation and both ears removed. From these ears, 0.38 cm^2 punch biopsies were taken from the central portion and each biopsy weighed on a Cahn electrobalance.
For each test substance, a group of 10 animals was used. Control groups either had both ears treated with croton oil or just the right ear. It was experimentally determined that a value of 11.0 mg could be assumed for a punch biopsy from a normal untreated ear and still be within the experimental error of the test. Therefore, for the calculation of percent inhibition, a value of 11.0 mg was used. [formula]
This calculation is valid only when no systemic effects are noted as evidenced by comparison of right ears of treated and control groups.
Statistical signifance at the 95% confidence level was determined by the paired test.

Series [5] has as its system phenylbenzoquinone-induced writhing. The experiment in a line: phenylquinone writhing assay. It is filed as in vivo, mouse (male mice). The conditions noted are these: oral gavage 3 h before i.p. 0.2% phenylbenzoquinone; 10 minute period; vehicle control 17.4 ± 1.7. The method, then: Three trienamide composition were tested for analgesic and anti-inflammatory activity using the phenylquinone writhing assay.
Groups of eight male mice weighing between approximately 25 and 30 g were dosed orally by gavage with the composition to be tested. Identical groups of mice were dosed with control compositions. Three hours after this initial administration, the mice were injected intraperitoneally with a 0.2% solution of phenylbenzoquinone in aqueous ethanol. The ability of the analgesic compositions tested to relieve the discomfort induced was measured by counting the number of abdominal contractions, or "writhes", occurring in each mouse during a 10 minute period beginning 10 minutes after injection of the phenylbenzoquinone solution.
For orientation: Writhing tests count abdominal constrictions after an irritant is injected.

The subject of series [6] is threshold for the perception of pain (hot plate, 55° C.). The experiment in a line: Rodent Hot Plate Test (rats, VL). For orientation: Thermal pain tests record how soon the animal reacts.
Series [7] concerns analgesia and inflammation. The experiment in a line: analgesic and anti-inflammatory activity (general statement). In kind it is in vivo.
Series [8] in a line: toxicity and narcotic side effects (general statement). It is filed as in vivo.
Series [9] has as its system threshold for the perception of pain (hot plate, 55° C.). The conditions noted are these: unless administered in toxic quantities; cited from earlier work.
Series [10] has as its system analgesia and inflammation. The note with it: background, literature on capsaicin; cited from earlier work.
The mark [11] stands for this setting: Example IV, sesame oil soft gelatin capsules, two capsules of 225 mg in 60 kg human.
[12] abbreviates: Example V, syrup, one teaspoon in 70 kg adult human.

For orientation: % Inhibition means the relative decrease from the control value, in per cent.

Read-outs that look alike come from different tables or passages of the source.

Take `CCCCC/C=C\C/C=C\C/C=C\C/C=C\CCCC(=O)NCc1ccc(O)c(OC)c1` [N-vanillyl-5Z,8Z,11Z,14Z-eicosatetraenamide]: the analgesia entry in series [1], in [2] (setting [11]), in series [2] (setting [12]) and in [3] was “produces analgesia” throughout. Further, the reduction of inflammation entry in [1], in series [2] (setting [11]), in series [2] (setting [12]) and in series [3] was “reduces inflammation” throughout.
In the case of `CCCCC/C=C\C/C=C\C/C=C\CCCCC(=O)NCc1ccc(O)c(OC)c1` [N-vanillyl-6Z,9Z,12Z-octadecatrienamide], the “% Inhibition” value in series [4] stood at 100.7 ± 11.9%. The compound also returned a Writhes/10 minutes in series [5] of 0.0 ± 0.0 Writhes/10 minutes. For the same compound, the reduction of inflammation entry in series [1], in series [2] (setting [11]), in series [2] (setting [12]) and in [3] was “substantially similar reduction of inflammation” each time.
Take `CC/C=C\C/C=C\C/C=C\CCCCCCCC(=O)NCc1ccc(O)c(OC)c1` [N-vanillyl-9Z,12Z,15Z-octadecatrienamide]: the “% Inhibition” value in series [4] is listed as 78.5 ± 31.9%. The Writhes/10 minutes in series [5] was found to be 0.4 ± 0.3 Writhes/10 minutes. Moreover, the analgesia result is “produces analgesia” in series [1], “producing analgesia” in [2] (setting [11]), “producing analgesia” in [2] (setting [12]) and “produces analgesia” in [3]. Moreover, the reduction of inflammation result in series [1] is on record as “reduces inflammation”; in series [2] (setting [11]) it was “reducing inflammation”; in series [2] (setting [12]) it was “reducing inflammation”; in series [3], “reduces inflammation”. The “% Animals Analgesic” value in series [6] (Example X, 20 mg/kg oral in sesame oil, 1 hr post-dose, vehicle 0) was found to be 70%; in series [6] (Example X, 20 mg/kg oral in sesame oil, 2 hrs post-dose, vehicle 20) it was 30%; in [6] (Example X, 20 mg/kg oral in sesame oil, 3 hrs post-dose, vehicle 0), 10%; in [6] (Experiment A, 200 mg/kg oral in propylene glycol, 1 hr post-dose, vehicle 20), 80%; in series [6] (Experiment A, 200 mg/kg oral in propylene glycol, 2 hrs post-dose, vehicle 10), 40%; in series [6] (Experiment A, 200 mg/kg oral in propylene glycol, 3 hrs post-dose, vehicle 0) it was 30%. Also, the “% Animals Analgesic” value in series [6] (Experiment B, 200 mg/kg oral in propylene glycol, 1 hr post-dose, vehicle 0) came out at 50%; in series [6] (Experiment B, 200 mg/kg oral in propylene glycol, 2 hrs post-dose, vehicle 20), 60%; in series [6] (Experiment B, 200 mg/kg oral in propylene glycol, 3 hrs post-dose, vehicle 0) it was 20%; in series [6] (Experiment C, 288 mg/kg oral in propylene glycol, 1 hr post-dose, vehicle 10) it was 50%; in [6] (Experiment C, 288 mg/kg oral in propylene glycol, 2 hrs post-dose, vehicle 0), 10%; in series [6] (Experiment C, 288 mg/kg oral in propylene glycol, 3 hrs post-dose, vehicle 0), 0%.
For `CC/C=C\C/C=C\C/C=C\CCCCCCCCCC(=O)NCc1ccc(O)c(OC)c1` [N-vanillyl-11Z,14Z,17Z-eicosatrienamide], the Writhes/10 minutes in series [5] came to 0.4 ± 0.3 Writhes/10 minutes. In addition, the reduction of inflammation entry in series [1], in series [2] (setting [11]), in series [2] (setting [12]) and in series [3] was “substantially similar reduction of inflammation” each time. Further, in [7], the “analgesic activity / potency compared with aspirin and opioids” value was “analgesic activity comparable to that of the opioids”. Besides, the “undesirable narcotic side effects (tolerance, physical dependence)” value in series [8] is on record as “does not exhibit undesirable narcotic side effects”.
On to `CC(=O)Nc1ccc(O)cc1` [acetaminophen], for which, in series [9], the “activity in the RHP system” value is “little or no activity”.
Take `CC(=O)Oc1ccccc1C(=O)O` [aspirin]: in series [9], the “activity in the RHP system” value is “little or no activity”.
For `COc1cc(CNC(=O)CCCCC=CC(C)C)ccc1O` [capsaicin, 8-methyl-N-vanillyl-6-nonenamide], in series [10], the analgesia entry is “induces analgesia”.

The record behind these values is patent publication US4898887A, “Compounds and compositions having anti-inflammatory and analgesic activity” (The Procter & Gamble Company, priority 1986, dated 1990).
